B1: D-amino acid oxidase (Sungouiella intermedia) (protein)
chain: MSEYVIVGSGIIGLYTGYKLLESGVPGESITVEAEFLPGDESIKYTSPYAGGNFSGITGDDPDSLKFDKHTYENLPKLQKLLGGPLCGLDMLPATEIWDNVKSKKIDSLKQYLKDYQEIEQEELPEGAKFGVKFTTWNFNCPKFLSNVQKYLLSKNVTFIRKNLTHITQAFGPATKCVFNCTGNGARFLGGVQDAKVYPTRGQVVVIKAPHINENMIRWGDNYATYIIKRPYSHDQLILGGFLQKDDWTPDTLSEQTEDILFRTTNLLPKILNQNPHGPNIEDLEIVRVVAGLRPSRHGGVRIEKEVLDGKLLIHNYGAGGYGYQSGLGMADKAVKLALGQSKL

Biological target: T1, D-amino acid oxidase (Sungouiella intermedia, UniProt A0A1L0GHW3)
Experiment: Substrate specificity of purified D-amino acid oxidase
Assay type: biochemical, Candida intermedia NBRC0761
Conditions: purified enzyme; activity to D-Phe as 100%; each substrate in place of DL-phenylalanine
Method: The activity of the D-amino acid oxidase was measured by quantifying hydrogen peroxide produced in the reaction by an enzyme method using peroxidase. Hydrogen peroxide was quantified by an enzyme method as follows. 250 μl of a chromogenic solution containing 50 mM DL-phenylalanine, 0.80 mM 4-aminoantipyrine, 1.31 mM N-ethyl-N-(2-hydroxy-3-sulfopropyl)-m-toluidine, 6 u/ml peroxidase (manufactured by TOYOBO Inc.) and 50 mM Tris-hydrochloric acid buffer (pH 8.0) was mixed with 50 μl of an appropriately diluted enzyme solution, and the mixture was reacted at 30° C. for 30 min. Absorption at 555 nm was measured, and the amount of hydrogen peroxide produced in the reaction mixture was quantified based on the analytical curve prepared in advance. The amount of the enzyme that produced 1 μmol of hydrogen peroxide in 1 minute was defined as 1 unit. In addition, protein was quantified according to a Bradford method using BSA as a standard protein. The specific activity of the purified D-amino acid oxidase was 44.8 units/mg protein (30° C.).
(§1) Moreover, the D-amino acid oxidase activity for examining the properties of the enzyme shown below was measured as follows. 250 μl of a substrate solution containing 100 mM DL-phenylalanine and 50 mM Tris-hydrochloric acid buffer (pH 8.0) was maintained at 30° C. (each temperature for determining the range of operative temperature and the optimal temperature) for 5 min, mixed with 50 μl of an appropriately diluted enzyme solution, and the mixture was reacted at 30° C. (each temperature for determining the range of operative temperature and the optimal temperature) for 5 min. 10 μl of 3N HCl was added to stop the reaction. Then, 500 μl of a chromogenic solution containing 0.80 mM 4-aminoantipyrine, 1.31 mM N-ethyl-N-(2-hydroxy-3-sulfopropyl)-m-toluidine, 6 u/ml peroxidase (manufactured by TOYOBO Inc.) and 50 mM Tris-hydrochloric acid buffer (pH 8.0), which was maintained at 30° C. for 5 min, was mixed with 100 μl of the aforementioned reaction mixture. Absorption at 555 nm was measured, and the amount of hydrogen peroxide produced in the reaction mixture was quantified based on the analytical curve prepared in advance.
The substrate specificity of the purified D-amino acid oxidase was examined. The substrate DL-phenylalanine used in the aforementioned enzyme activity assay was changed to each substrate, and the enzyme activity was measured.

| Molecule | relative activity (%) |
| --- | --- |
| NC(CCBr)C(=O)O (racemic) [DL-2-amino-4-Br-butyric acid] | 17.2% |
| CCCC(N)C(=O)O (racemic) [DL-Norvaline] | 93.8% |
| CCC(C(=O)O)c1ccccc1 (racemic) [DL-α-phenylbutyric acid] | 194.7% |
| N[C@@H](C(=O)O)c1ccc(O)c(O)c1 [D-3,4-dihydroxy-phenylglycine] | 5.7% |
| C[C@@H](N)C(=O)O [D-Ala] | 129.1% |
| NC(N)=NCCCC(N)C(=O)O [D-Arg] | 0.05% |
| NC(=O)C[C@@H](N)C(=O)O [D-Asn] | 5.8% |
| N[C@H](CC(=O)O)C(=O)O [D-Asp] | 0.0% |
| NC(=O)CC[C@@H](N)C(=O)O [D-Gln] | 5.8% |
| N[C@H](CCC(=O)O)C(=O)O [D-Glu] | 0.0% |
| N[C@H](Cc1c[nH]cn1)C(=O)O [D-His] | 4.2% |
| CC[C@@H](C)[C@@H](N)C(=O)O [D-Ile] | 16.6% |
| CC(C)C[C@@H](N)C(=O)O [D-Leu] | 96.7% |
| NCCCC[C@@H](N)C(=O)O [D-Lys] | 0.0% |
| CSCC[C@@H](N)C(=O)O [D-Met] | 100.5% |
| O=C(O)[C@H]1CCCN1 [D-Pro] | 44.3% |
| N[C@H](CO)C(=O)O [D-Ser] | 11.3% |
| C[C@H](O)[C@@H](N)C(=O)O [D-Thr] | 4.7% |
| CC(C)[C@@H](N)C(=O)O [D-Val] | 27.3% |
| N[C@H](Cc1ccc(F)cc1)C(=O)O [D-p-F-Phe] | 167.2% |
| NCC(=O)O [Gly] | 0.0% |
| C[C@H](N)C(=O)O [L-Ala] | 0.0% |
| CSCC[C@H](N)C(=O)O [L-Met] | 0.0% |
| CCC[C@H](N)C(=O)O [L-Norvaline] | 0.0% |
| O=C(O)[C@@H]1CCCN1 [L-Pro] | 0.0% |

Biological target: T1, D-amino acid oxidase
Experiment: Specific activity of purified D-amino acid oxidase (hydrogen peroxide quantified with peroxidase)
Assay type: biochemical, Candida intermedia NBRC0761
Conditions: 30° C.; 1 unit = 1 μmol hydrogen peroxide in 1 minute; DL-phenylalanine, pH 8.0
Method: An enzyme solution is appropriately diluted, mixed with a chromogenic solution containing 50 mM DL-phenylalanine, 0.80 mM 4-aminoantipyrine, 1.31 mM N-ethyl-N-(2-hydroxy-3-sulfopropyl)-m-toluidine, 6 u/ml peroxidase (manufactured by TOYOBO Inc.), and 50 mM Tris-hydrochloric acid buffer (pH 8.0) at 1:5, and reacted at 30° C. for 30 min. The absorbance at 555 nm is measured, and the amount of hydrogen peroxide produced in the reaction mixture is quantified based on the analytical curve prepared in advance. In the embodiment, unless otherwise specified, this method was used to assay the D-amino acid oxidase activity.
The activity of the D-amino acid oxidase was measured by quantifying hydrogen peroxide produced in the reaction by an enzyme method using peroxidase. Hydrogen peroxide was quantified by an enzyme method as follows. […] Absorption at 555 nm was measured, and the amount of hydrogen peroxide produced in the reaction mixture was quantified based on the analytical curve prepared in advance. […] In addition, protein was quantified according to a Bradford method using BSA as a standard protein. […]

| Molecule | specific activity |
| --- | --- |
| B1 | 44.8 units/mg protein |

Biological target: T1, D-amino acid oxidase
Experiment: Range of reaction temperature and pH, optimal temperature and pH
Assay type: biochemical, Candida intermedia NBRC0761
Conditions: FIG. 4
Method: as §1
The range of reaction temperature and the optimal temperature were examined.
The range of reaction pH and the optimal pH were examined. […] The enzyme was active at least within the examined range of pH 6-10.5, and the optimal pH was 8.5-9.5.

| Molecule | optimal pH |
| --- | --- |
| B1 | 8.5-9.5 pH |

Same assay, conditions: examined range; activity at 30° C. as 100% (FIG. 3)

| Molecule | range of reaction temperature (highly active) |
| --- | --- |
| B1 | 20-60 °C |

Same assay, conditions: examined range; activity at pH 8.0 as 100% (FIG. 4)

| Molecule | range of reaction pH (active) |
| --- | --- |
| B1 | 6-10.5 pH |

Biological target: T1, D-amino acid oxidase
Experiment: Temperature stability and pH stability (residual activity)
Assay type: physicochemical, Candida intermedia NBRC0761
Conditions: residual activity after 30° C. for 16 hr at each pH (FIG. 6)
Method: as §1
The temperature stability of the enzyme was measured based on the residual activity after a treatment at each temperature for 10 min.
The pH stability was examined. […]

| Molecule | pH stability (comparatively stable at) |
| --- | --- |
| B1 | 7.8-8.7 pH |

Same assay, conditions: residual activity after treatment at each temperature for 10 min (FIG. 5)

| Molecule | temperature stability (stable at) |
| --- | --- |
| B1 | ≤ 40 °C |

Substrate: N[C@H](Cc1ccccc1)C(=O)O
Experiment: Measurement of Km value relative to D-Phe
Assay type: biochemical, Candida intermedia NBRC0761
Conditions: other: D-Phe as substrate, various substrate concentrations, reciprocal plot (FIG. 2); pH 8.0; 30.0 °C
Method: as §1
Using D-Phe as a substrate, the activity was measured at various substrate concentrations and the Km value relative to D-Phe was determined. From the results shown in FIG. 2, the Km value relative to D-Phe was about 1.7 (not less than 1.6 and not more than 1.8) mM.

| Molecule | Km |
| --- | --- |
| B1 | 1.7 mM |

From patent US8227228B2, “D-amino acid oxidase, and method for production of L-amino acid, 2-oxo acid, or cyclic imine” (priority 2005, dated 2012)
